Laboratory results as given in PubChem BioAssay (NCI).
“And” between values parts separate entries of the source, which are not always exact repeats. Equal entries are not always repeated.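 Where inhibition never reached the appropriate level, the endpoint shown equals the highest concentration tested. Otherwise, values were interpolated linearly from a five-concentration, 48-hour dose response in 96-well plates. The concentration for 50% growth inhibition is given as GI50. Definition used: TGI = concentration required for complete inhibition of growth.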

System: MDA-MB-468 breast
Assay: NCI-60 cell line screen, 48 h

Oc1ccc(-c2nnc(SCc3ccc(O)c4ncccc34)n2-c2ccccc2)cc1
GI50: 421 nM | TGI: 2830 nM

O=c1cc(-c2cccc(OCc3ccccc3)c2)[nH]c2cc3c(cc12)OCO3
GI50: 9590 nM | TGI: > 100000 nM

C/C(=C\c1ccn(-c2ccc(N)cc2F)n1)[C@@H]1C[C@@H]2O[C@]2(C)CCC[C@H](C)[C@H](O)[C@@H](C)C(=O)C(C)(C)[C@@H](O)CC(=O)O1
GI50: 26.3 nM | TGI: 300 nM

CNC(=O)CN1CCC(Oc2cc3c(Nc4cccc(Cl)c4F)ncnc3cc2OC)CC1
GI50: < 10 nM and 4.03 nM

O=C(NCCCCCCNC(=O)OCc1ccc2c(Cl)cc(Cl)c(O)c2n1)OCc1ccc2c(Cl)cc(Cl)c(O)c2n1
GI50: 590 nM | TGI: 2140 nM

COc1cc(N2CCC(N3CCN(C)CC3)CC2)ccc1Nc1ncc(Cl)c(Nc2ccccc2S(=O)(=O)C(C)C)n1
GI50: 483 nM | TGI: 1780 nM

CN1CCN(CC(=O)N2c3cccc4cccc(c34)N(C(=O)CN3CCN(C)CC3)C2c2cn(-c3ccccc3)nc2-c2cccc([N+](=O)[O-])c2)CC1
GI50: 1610 nM | TGI: 3060 nM

N#Cc1nn(-c2cc(=O)[nH]c3ccc(Br)cc23)c(N)c1C#N
GI50: > 100000 nM | TGI: > 100000 nM

C=C1C(=O)O[C@H]2[C@H]1CC/C(COC(=O)NCc1cc(OC)cc(OC)c1)=C\CC[C@@]1(C)O[C@@H]21
GI50: 580 nM | TGI: 2330 nM

O=C(O)c1ccccc1Nc1ccc2nnc(-c3ccncc3)n2n1
GI50: 1960 nM | TGI: 4590 nM

O=[N+]([O-])c1cc2c(c([N+](=O)[O-])c1)Nc1ccccc1O2
GI50: 2140 nM | TGI: 9840 nM

Cc1nc2sc(C(=O)Nc3cccc(Br)c3)c(N)c2cc1C(O)c1ccccc1 (stereo unspecified)
GI50: 380 nM | TGI: 10200 nM

Cc1nn(C)c2cc(N(C)c3ccnc(Nc4cccc(S(N)(=O)=O)c4)n3)ccc12
GI50: 4190 nM | TGI: 13700 nM

COc1ccc2nc(-c3cc4c([nH]c5ccccc54)c(-c4ccc(F)c(F)c4)n3)[nH]c2c1
GI50: 1700 nM | TGI: 3920 nM

Clc1ccc2c(NCCNc3nc(N4CCCC4)nc4ccccc34)ccnc2c1
GI50: 1200 nM | TGI: 3430 nM

Oc1c(I)cc(I)cc1CN(Cc1ccccn1)Cc1ccccn1
GI50: 1310 nM | TGI: 7280 nM

Cc1cc2nc(C(Cl)Cl)nc(-c3ccccc3)n2n1
GI50: 1810 nM | TGI: 4450 nM

COc1ccc2nc3ccccc3c(NCc3ccc(C)cc3)c2c1
GI50: 1810 nM | TGI: 3920 nM

C[C@@H]1OCC2(CCN(c3cnc(Sc4ccnc(N)c4Cl)c(N)n3)CC2)[C@@H]1N
GI50: 14800 nM | TGI: > 100000 nM

Fc1cccc(-c2[nH]nc3nc(Nc4cccnc4)sc23)c1
GI50: 360 nM | TGI: 3000 nM

C=CCSSc1ncnc2c1ncn2C1OC(CO)C(O)C1O (stereo unspecified)
GI50: 217 nM | TGI: 4460 nM

Nc1c2ccccc2nc2ccccc12 (tested in a mixture with another compound)
GI50: 1070 nM | TGI: 3210 nM

CCN(CC)CC[n+]1cc2cc(OC)c(OC)cc2c2ccc3cc4c(cc3c21)OCO4
GI50: 241 nM | TGI: 1090 nM

COc1ccc(C2CC(=O)c3c(O)c(OC)c(OC)c(OC)c3O2)cc1O (stereo unspecified)
GI50: 1510 nM | TGI: > 100000 nM

Cc1ccc(C2=NN(c3ccc(S(N)(=O)=O)cc3)C(c3cn(-c4ccccc4)nc3-c3ccccc3)C2)cc1 (stereo unspecified)
GI50: 24300 nM | TGI: > 100000 nM

O=S(=O)(Nc1ccccn1)c1ccc(N=Nc2ccc(O)c3ncccc23)cc1
GI50: 2230 nM | TGI: 8440 nM

CCN1CCN(c2ccc(Nc3ncc4ccc5ncn(C(C)C)c5c4n3)nc2)CC1
GI50: 177 nM | TGI: 444 nM

CC#CC(=O)N1CC[C@@H](n2c(=O)n(-c3ccc(Oc4ccccc4)cc3)c3c(N)ncnc32)C1
GI50: 10500 nM | TGI: 60200 nM

COc1cc(C)c(NC(=O)CN(C)C)cc1Nc1nc(Nc2cccc(F)c2C(N)=O)c2cc[nH]c2n1
GI50: 263 nM | TGI: 1210 nM

Oc1c(CN2CCN(c3ccccc3F)CC2)cc(Br)c2cccnc12
GI50: 673 nM | TGI: 6840 nM

CCOCCOC[C@H]1CCCN(c2ccnc3sc(C(N)=O)c(N)c23)C1
GI50: 3440 nM | TGI: > 100000 nM
